Source: ChEMBL document CHEMBL1201862, “PubChem BioAssay data set” (2004)
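96-well plates; 48 h exposure; 5 concentrations. Endpoints by linear interpolation between flanking doses. Not reached: highest tested concentration assigned. GI50 = concentration required for 50% inhibition of growth.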 Active and inactive are the calls of the source. Cut-off read from the data, not from the text of the source: active = GI50 up to about 1.1 µM and inactive = higher.

Assays:
Experiment in all cases: inhibition of tumour cell growth, NCI panel, 48 h
DMS-114 = system: DMS-114
DMS-273 = system: DMS-273
KM-20L2 = system: KM-20L2
LXFL 529 = system: LXFL 529
M19-MEL = system: M19-MEL
RXF 631 = system: RXF 631
SNB-78 = system: SNB-78
XF498 = system: XF498
BT-549 = system: BT-549

Measured: GI50

CCCn1c(SCC)c2ccccc2c1-c1nc(F)nc(F)n1
inactive: DMS-114 > 100 µM | DMS-273 > 100 µM | KM-20L2 > 100 µM | LXFL 529 > 100 µM | M19-MEL > 100 µM | RXF 631 > 100 µM | SNB-78 > 100 µM | XF498 > 100 µM

CCCCCCCC(=O)O[C@H]1[C@H]2[C@@H](CC1(C)C)C(=O)[C@]13O[C@H]1C(=O)[C@]1(CO1)[C@]23C
inactive: BT-549 15.5 µM | DMS-114 3.41 µM | DMS-273 5.96 µM | KM-20L2 4.89 µM | LXFL 529 1.58 µM | M19-MEL 3.41 µM | RXF 631 17.8 µM | SNB-78 4.94 µM | XF498 3.26 µM

Cc1cc2c(cc1C)[n+]([O-])c(C(=O)C/C(=N/OCCCc1ccccc1)C(=O)Nc1cc(Cl)ccc1Cl)c(C)[n+]2[O-]
inactive: DMS-273 > 100 µM | KM-20L2 > 100 µM | LXFL 529 > 100 µM | M19-MEL > 100 µM | RXF 631 > 100 µM | SNB-78 > 100 µM | XF498 > 100 µM

NNC(=O)/C(=C/c1cccc([N+](=O)[O-])c1)NC(=O)c1ccccc1
inactive: DMS-114 > 100 µM | DMS-273 > 100 µM | LXFL 529 > 100 µM | M19-MEL > 100 µM | RXF 631 > 100 µM | SNB-78 > 100 µM | XF498 > 100 µM

N/C(=N\O)N/N=C/c1cccc(F)c1
inactive: DMS-114 22.9 µM | DMS-273 48.9 µM | KM-20L2 32.2 µM | LXFL 529 27 µM | M19-MEL 48.3 µM | RXF 631 26.1 µM | SNB-78 > 100 µM | XF498 43.7 µM

O=C1CC(c2c(-c3ccccc3)[nH]c3ccccc23)C(=O)N1c1ccccc1 (centres undefined)
inactive: DMS-114 49.5 µM | DMS-273 > 100 µM | KM-20L2 95.1 µM | LXFL 529 57.1 µM | M19-MEL > 100 µM | RXF 631 56.8 µM | SNB-78 > 100 µM | XF498 > 100 µM

O=C1C2C3C=C4c5ccccc5N(c5ccccc5)C4(C2C(=O)N1c1ccccc1)C1C(=O)N(c2ccccc2)C(=O)C31 (centres undefined)
inactive: DMS-114 > 100 µM | KM-20L2 > 100 µM | LXFL 529 > 100 µM | M19-MEL 5.13 µM | RXF 631 > 100 µM | SNB-78 > 100 µM | XF498 37 µM

CCOC(=O)C1=C(C)N(NC(=O)Nc2ccccc2)C2(N)N(NC(=O)Nc3ccccc3)C(C)=C(C(=O)OCC)C12C(=O)OCC (centres undefined)
inactive: DMS-114 25.5 µM | DMS-273 41.9 µM | KM-20L2 75.9 µM | LXFL 529 57 µM | M19-MEL 43.3 µM | RXF 631 51.9 µM | SNB-78 42.4 µM | XF498 12 µM

CCCCCCCCCCCCCCCCc1c(O)nc(NN)nc1C(=O)OC
inactive: DMS-114 > 50 µM | DMS-273 > 50 µM | KM-20L2 > 50 µM | LXFL 529 > 50 µM | M19-MEL > 50 µM | RXF 631 > 50 µM | SNB-78 > 50 µM | XF498 > 50 µM

Cc1[nH]c2ccccc2c1C1Cc2ccccc2N1C(=O)/C=C\C(=O)O (centres undefined)
inactive: DMS-114 33.4 µM | DMS-273 58.2 µM | KM-20L2 81.1 µM | LXFL 529 21.6 µM | M19-MEL 34 µM | RXF 631 > 100 µM | SNB-78 61.8 µM | XF498 22.4 µM

Cc1ccc(SSCCCCS(=O)O)cc1
inactive: DMS-114 11.5 µM | DMS-273 19.6 µM | KM-20L2 20.4 µM | LXFL 529 12.9 µM | M19-MEL 12.2 µM | RXF 631 11.7 µM | SNB-78 25.1 µM | XF498 14.8 µM

O=C(O)C[C@H]1CCCCC12CCOC2=O (some centres undefined)
inactive: DMS-114 > 100 µM | DMS-273 > 100 µM | KM-20L2 > 100 µM | LXFL 529 > 100 µM | M19-MEL > 100 µM | RXF 631 > 100 µM | SNB-78 > 100 µM | XF498 > 100 µM
